From ChEMBL document CHEMBL4346657, “Anticancer activity, dual prooxidant/antioxidant effect and apoptosis induction profile of new bichalcophene-5-carboxamidines” (Eur J Med Chem, 2019)

Experiments:
OVCAR-8 = experiment: Antiproliferative activity against human OVCAR8 cells assessed as growth inhibition after 48 hrs by sulforhodamine B assay; format: functional; conditions: OVCAR-8, 48 h
[1] = test system: Panel NCI-60 (60 carcinoma cell lines); experiment: Antiproliferative activity against human NCI60 cells assessed as growth inhibition at 10 uM after 48 hrs by sulforhodamine B assay; format: functional; conditions: read-out: GI
BT-549 = experiment: Antiproliferative activity against human BT549 cells assessed as growth inhibition after 48 hrs by sulforhodamine B assay; format: functional; conditions: BT-549, 48 h
NCI-H460 = experiment: Antiproliferative activity against human NCI-H460 cells assessed as growth inhibition after 48 hrs by sulforhodamine B assay; format: functional; conditions: NCI-H460, 48 h
[2] = Antioxidant activity assessed as DPPH radical scavenging activity incubated in dark for 30 mins by spectrophotometric method relative to control; format: functional; design: concentration or dose not given beside the values
UACC-257 = experiment: Antiproliferative activity against human UACC257 cells assessed as growth inhibition after 48 hrs by sulforhodamine B assay; format: functional; conditions: UACC-257, 48 h
SNB-75 = experiment: Antiproliferative activity against human SNB75 cells assessed as growth inhibition after 48 hrs by sulforhodamine B assay; format: functional; conditions: SNB-75, 48 h
HCT-116 [3] = experiment: Antiproliferative activity against human HCT116 cells assessed as growth inhibition after 48 hrs by sulforhodamine B assay; format: functional; conditions: HCT-116, 48 h
[4] = Antioxidant activity assessed as ABTS radical scavenging activity by spectrophotometric method relative to ascorbic acid; format: functional
SF-268 = experiment: Antiproliferative activity against human SF268 cells assessed as growth inhibition after 48 hrs by sulforhodamine B assay; format: functional; conditions: SF-268, 48 h
TK-10 = experiment: Antiproliferative activity against human TK10 cells assessed as growth inhibition after 48 hrs by sulforhodamine B assay; format: functional; conditions: TK-10, 48 h
WI-38 = experiment: Cytotoxicity activity against human WI38 cells assessed as reduction in cell viability measured after 48 hrs by MTT assay; format: cell-based; conditions: WI-38, 48 h
RXF 393 = experiment: Antiproliferative activity against human RXF393 cells assessed as growth inhibition after 48 hrs by sulforhodamine B assay; format: functional; conditions: RXF 393, 48 h
SW-620 = experiment: Antiproliferative activity against human SW620 cells assessed as growth inhibition after 48 hrs by sulforhodamine B assay; format: functional; conditions: SW-620, 48 h
RPMI-8226 = experiment: Antiproliferative activity against human RPMI8226 cells assessed as growth inhibition after 48 hrs by sulforhodamine B assay; format: functional; conditions: RPMI-8226, 48 h
Malme-3M = experiment: Antiproliferative activity against human MALME-3M cells assessed as growth inhibition after 48 hrs by sulforhodamine B assay; format: functional
HOP-62 = experiment: Antiproliferative activity against human HOP62 cells assessed as growth inhibition after 48 hrs by sulforhodamine B assay; format: functional; conditions: HOP-62, 48 h
SK-OV-3 = experiment: Antiproliferative activity against human SKOV3 cells assessed as growth inhibition after 48 hrs by sulforhodamine B assay; format: functional; conditions: SK-OV-3, 48 h
[5] = test system: Panel NCI-60 (60 carcinoma cell lines); experiment: Antiproliferative activity against human NCI60 cells assessed as growth inhibition after 48 hrs by sulforhodamine B assay; format: functional
U-251 = experiment: Antiproliferative activity against human U251 cells assessed as growth inhibition after 48 hrs by sulforhodamine B assay; format: functional; conditions: U-251, 48 h
Hs-578T = experiment: Antiproliferative activity against human Hs578T cells assessed as growth inhibition after 48 hrs by sulforhodamine B assay; format: functional
A498 = experiment: Antiproliferative activity against human A498 cells assessed as growth inhibition after 48 hrs by sulforhodamine B assay; format: functional; conditions: A498, 48 h
NCI/ADR-RES = experiment: Antiproliferative activity against human NCI-ADR-RES cells assessed as growth inhibition after 48 hrs by sulforhodamine B assay; format: functional
NCI-H226 = experiment: Antiproliferative activity against human NCI-H226 cells assessed as growth inhibition after 48 hrs by sulforhodamine B assay; format: functional; conditions: NCI-H226, 48 h
HCT-116 [6] = experiment: Induction of apoptosis in human HCT116 cells assessed as increase in caspase 3 mRNA expression at 100 nM after 6 hrs hrs by SYBR green dye-based qRT-PCR analysis relative to control; format: functional
OVCAR-3 = experiment: Antiproliferative activity against human OVCAR3 cells assessed as growth inhibition after 48 hrs by sulforhodamine B assay; format: functional; conditions: OVCAR-3, 48 h
MDA-MB-231 = experiment: Antiproliferative activity against human MDA-MB-231/ATCC cells assessed as growth inhibition after 48 hrs by sulforhodamine B assay; format: functional; conditions: MDA-MB-231, 48 h
786-0 = experiment: Antiproliferative activity against human 786-0 cells assessed as growth inhibition after 48 hrs by sulforhodamine B assay; format: functional; conditions: 786-0, 48 h
HCT-116 [7] = experiment: […] in CDK1 mRNA expression in human HCT116 cells at 100 nM after 6 hrs hrs by SYBR green dye-based qRT-PCR analysis relative to control; format: functional
HT-29 = experiment: Antiproliferative activity against human HT-29 cells assessed as growth inhibition after 48 hrs by sulforhodamine B assay; format: functional; conditions: HT-29, 48 h
ACHN = experiment: Antiproliferative activity against human ACHN cells assessed as growth inhibition after 48 hrs by sulforhodamine B assay; format: functional
MOLT-4 = experiment: Antiproliferative activity against human MOLT4 cells assessed as growth inhibition after 48 hrs by sulforhodamine B assay; format: functional; conditions: MOLT-4, 48 h
HCC 2998 = experiment: Antiproliferative activity against human HCC2998 cells assessed as growth inhibition after 48 hrs by sulforhodamine B assay; format: functional; conditions: HCC 2998, 48 h
Erythrocyte = experiment: Haemolytic activity in human erythrocytes assessed as induction of hemolysis at 0.625 mM after 30 mins relative to H202; format: cell-based; conditions: erythrocyte, 0.5 h, 625 µM
NCI-H522 = experiment: Antiproliferative activity against human NCI-H522 cells assessed as growth inhibition after 48 hrs by sulforhodamine B assay; format: functional; conditions: NCI-H522, 48 h
[8] = Antioxidant activity assessed as DPPH radical scavenging activity incubated in dark for 30 mins by spectrophotometric method relative to ascorbic acid; format: functional
IGROV-1 = experiment: Antiproliferative activity against human IGROV1 cells assessed as growth inhibition after 48 hrs by sulforhodamine B assay; format: functional; conditions: IGROV-1, 48 h
[9] = Haemolytic activity in human erythrocytes assessed as induction of hemolysis at 10 mM after 30 mins relative to H202; format: cell-based, Erythrocyte; conditions: read-out: Activity
[10] = Haemolytic activity in human erythrocytes assessed as induction of hemolysis at 5 mM after 30 mins relative to H202; format: cell-based, Erythrocyte; conditions: read-out: Activity
NCI-H23 = experiment: Antiproliferative activity against human NCI-H23 cells assessed as growth inhibition after 48 hrs by sulforhodamine B assay; format: functional; conditions: NCI-H23, 48 h
SF-295 = experiment: Antiproliferative activity against human SF295 cells assessed as growth inhibition after 48 hrs by sulforhodamine B assay; format: functional; conditions: SF-295, 48 h
OVCAR-4 = experiment: Antiproliferative activity against human OVCAR4 cells assessed as growth inhibition after 48 hrs by sulforhodamine B assay; format: functional; conditions: OVCAR-4, 48 h

Compound N=C(N)c1ccc(-c2ccc(-c3cncc4ccccc34)s2)s1 has a GI50 (OVCAR-8) of 1830 nM, an inhibition of growth at 10 µM [1] of -59.2% and a GI50 (BT-549) of 1510 nM. The GI50 (NCI-H460) was 880 nM, the inhibition [2] was 52.5% and the GI50 (UACC-257) was 2470 nM. The GI50 (SNB-75) was 1930 nM, the GI50 (HCT-116 [3]) was 1610 nM and the fold change (FC) [4] was 0.8. For the same compound, the GI50 (SF-268) was 1630 nM, the GI50 (TK-10) was 1840 nM and the IC50 (WI-38) was greater than 100 µM. The GI50 (RXF 393) was 1600 nM, the GI50 (SW-620) was 1080 nM and the GI50 (RPMI-8226) was 1780 nM. The GI50 (Malme-3M) was 1610 nM, the GI50 (HOP-62) was 1700 nM and the GI50 (SK-OV-3) was 1580 nM. The GI50 [5] was 1340 nM, the LC50 [5] was 77.6 µM and the TGI [5] was 3.23 µM. The GI50 (U-251) was 1720 nM, the GI50 (Hs-578T) was 2220 nM and the GI50 (A498) was 1690 nM. For the same compound, the GI50 (NCI/ADR-RES) was 1680 nM, the GI50 (NCI-H226) was 1910 nM and the “fold change (FC)” value (HCT-116 [6]) was 3.03. It also gave a GI50 (OVCAR-3) of 1650 nM, a GI50 (MDA-MB-231) of 1350 nM and a GI50 (786-0) of 1590 nM. For the same compound, the “fold change (FC)” value (HCT-116 [7]) was 0.16, the GI50 (HT-29) was 560 nM and the GI50 (ACHN) was 1480 nM. The GI50 (MOLT-4) was 1170 nM, the GI50 (HCC 2998) was 1530 nM and the Activity (Erythrocyte) was “Non-Toxic”. The GI50 (NCI-H522) was 1650 nM, the fold change (FC) [8] was 0.6 and the GI50 (IGROV-1) was 1910 nM. For the same compound, the hemolysis at 0.5 h, 10000 µM [9] was 12.3%, the hemolysis at 0.5 h, 5000 µM [10] was 4% and the GI50 (NCI-H23) was 1760 nM. For the same compound, the GI50 (SF-295) was 1800 nM and the GI50 (OVCAR-4) was 300 nM.
